According to patent US8999937B2, “Glucocorticoid induced leucine zipper mimetics as therapeutic agents in multiple sclerosis” (Indiana University Research and Technology Corporation, priority 2011, dated 2015):
Entries after “also recorded” stand apart in the source; their conditions may differ.

Legend:
[1] = test system: CD4+ splenocytes/LNC from R-EAE mice; assay: Ex vivo cytokine secretion (ELISA) by CD4+ cells from treated R-EAE mice; assay type: in vivo, mouse
Protocol: Data represent average±S.D. from two experiments (n=9/group). (C)-(H) show GILZ-peptide treatment suppresses Th1 cytokines in R-EAE. […] C, proliferative responses of CD4+ splenocytes are plotted as Δcpm±S.E. #, p<0.05 as compared with the responses of cells from vehicle-treated mice. Supernatant collected at 48 h from separate CD4+ splenocyte cultures were assessed for (D) IL-12, (E) IFN-γ, (F) IL-17, (G) IL-10, and (H) TGF-β by ELISA. * and # represent p<0.05 as compared with vehicle or control peptide-treated groups, respectively.
Supernatants collected 48 hrs later were assessed for cytokines using Opt EIA kits according to the manufacturer's recommendations (BD PharMingen). Differences between the groups in the mean clinical score and cytokine secretion were determined by a one-way ANOVA with Tukey's posthoc. Results were considered significant at p<0.05.
Supernatants collected at 24 and 48 h were assessed for specific cytokines using the OptEIA kits (BD Biosciences). Proliferation assays included parallel cultures for 72 h with a final 18-h pulse with [^3H]thymidine measured by liquid scintillation counting (Microbeta, Turku, Finland).

[2] = molecular target: T1, p65ΔC14 (Homo sapiens, UniProt Q04206); assay: GILZ binding ELISA with partial length p65; details: detected with anti-p65 mAb
T1 construct: purchased Active Motif, Carlsbad, Calif
Protocol: (§1) Binding of the plate-bound r-p65 with cytoplasmic GILZ and the plate-bound GILZ with nuclear p65 was detected with anti-GILZ mAb or anti-p65 mAb, respectively, followed by trinitrobenzene substrate. […] Absorbance at 650 nm was measured between 0 and 300 s with a mixing time of 0.30 s and a 5-s interval between readings.

[3] = Circular dichroism; assay type: physicochemical
Protocol: CD measurements can be recorded on a JASCO model, J-710 spectropolarimeter, (Jasco Inc, Easton, Md.) as described previously. The samples can be prepared by dissolving lyophilized GILZ peptide or control peptides at 100 μM concentration in citrate buffer (1 mM sodium citrate, 1 mM sodium borate, 1 mM sodium phosphate, 15 mM NaCl) with pH adjusted at 7.0. CD spectra can be collected using a 1 cm path-length quartz cuvette at 50° C. or 90° C. in the 190- to 270-nm wavelength range with a 0.5 nm resolution and a scan rate of 200 nm/min. Reported spectra can represent the unsmoothed averages of 30 scans. Each spectrum can be measured three times with individually prepared solutions. Raw CD signals (in millidegrees) can be converted to mean residue molar ellipticity (θ) in deg cm^2/dmol using the formula [θ] MRW 5 [θ]obs/101cn, where θ obs is the observed ellipticity, 1 is the pathlength in centimeters, c is the molar concentration of peptide, and n is the number of residues in the peptide. To determine 0% PPII helical content CD spectra can be recorded with GILZ-peptide dissolved in 5M CaCl2.

[4] = test system: R-EAE in SJL/J mice; assay: Relapsing remitting EAE (R-EAE) in SJL/J mice, clinical score; assay type: in vivo, mouse
Protocol: Relapsing remitting EAE is induced in 8-10-week old female SJL/J mice. The mice were immunized with 100 μg of PLP139-151 in PBS emulsified 1:1 in complete Freund's adjuvant supplemented with 200 μg of Mycobacterium tuberculosis H37RA (Difco Laboratories, Detroit, Mich.) distributed over four sites on the lateral hind flanks subcutaneously. Mice were injected with 100 ng of pertussis toxin (List Biological Laboratories, Campbell, Calif.) intraperitonealy on the day of immunization and 2 days later (Srinivasan et al., (2002) J Immunol, 169(4):2180-8).
As opposed to the B10.PL mice which often develop monophasic EAE, PLP139-151 immunized SJL/J mice develop relapsing remitting form of EAE (R-EAE) (Dudhgaonkar et al. (2009) J Immunol, 183(11):7505-13). Groups of SJL/J mice were induced EAE as described above. Animals were observed daily for clinical signs and scored as follows: 0, no clinical signs; 1, limp tail or waddling gait with tail tonicity; 2, waddling gait with limp tail (ataxia); 2.5, ataxia with partial paralysis of one limb; 3, partial hind-limb paralysis; 3.5, full paralysis of one limb with partial paralysis of the second limb; 4, full paralysis of two limbs; 4.5 moribund; and 5, death (1, 8). […] A group of mice received the GILZ peptide:Pep-1 complex on day 12 post-immunization. Groups of mice treated with PBS (vehicle) or Pep-1 alone were included as control.
A group of mice received the GILZ-P•Pep-1 complex 12 days post-immunization. rh-GILZ was used to evaluate the effect in R-EAE.

[5] = molecular target: T2, recombinant human p65 protein (r-p65) (Homo sapiens, UniProt Q04206); assay: GILZ:p65 direct binding and kinetics by modified ELISA
T2 construct: control-P at varying concentrations was probed with full-length r-p65-DDK; purchased OriGene Technologies Inc., Rockville, Md
Protocol: To detect direct interaction, ELISA plates were coated with increasing concentrations of the GILZ protein and probed with increasing concentrations of the p65 protein followed by detection with anti-human GILZ mAb. To detect binding of cellular GILZ and p65, ELISA plates were coated with the p65 protein (20 ng), and probed with the cytoplasmic fraction from T cells. Binding of the plate bound p65 with the cytoplasmic GILZ protein was detected with anti-human GILZ mAb. Alternatively, wells coated with the GILZ-GST protein (20 ng) were probed with the nuclear fractions from T cells and the GILZ:nuclear p65 binding was detected with anti-human p65 mAb. The bound complex was detected with TNB at absorbance of 450 nm.
as §1

[6] = test system: PPD stimulated human CD4+ T cells; assay: Cytokine secretion by PPD-stimulated human CD4+ T cells (ELISA); assay type: cell-based; details: 24 h, complex with chariot peptide
Protocol: Purified CD4+ T cells isolated from PBMC by magnetic cell separation (Miltenyi Biotech, Germany), were seeded with irradiated autologous PBMC (T cells depleted) as APC at 1:1.5 ratio in serum-free RPMI (with 5% penicillin/streptomycin), and stimulated with PPD (20 μm/ml) alone or in the presence of dexamethasone (100 μm/ml) or 20:1 M complex of chariot peptide with GILZ protein (0.7 μm/ml)/anti-human GILZ mAb (1 μm/ml)/anti-human p65 mAb (1 μm/ml)/control antibody (1 μm/ml). Supernatants collected at 24 hrs were assessed for cytokines including human IFN-γ, TNF-α, IL-12 p40 and IL-10 using BD OptEIA™ kits. Differences in the secretion of cytokines between the groups were determined by one way ANOVA followed by Tukey's post-hoc analysis (see FIG. 4).

[7] = Example 1, LNC 45 days post-immunization, PLP139-151 and/or MBP87-99, vs vehicle/control peptide
[8] = Example 1, LNC 45 days post-immunization, PLP139-151 or MBP87-99, vs vehicle/control peptide
[9] = MBP87-99 stimulation, mice treated on day 0
[10] = PLP139-151 re-stimulation, mice treated on day 0
[11] = mice treated 12 days post-immunization
[12] = Example 1, entire period of observation
[13] = Example 1, i.p. on day 0 with Pep-1, peptides 500 μg, r-GILZ 2 ng, n=4/group
[14] = Example 2, single i.p. dose on day 0 with Pep-1, peptides 500 μg, r-GILZ 2 ng, n=9/group

T2 sequence (Q04206 whole entry): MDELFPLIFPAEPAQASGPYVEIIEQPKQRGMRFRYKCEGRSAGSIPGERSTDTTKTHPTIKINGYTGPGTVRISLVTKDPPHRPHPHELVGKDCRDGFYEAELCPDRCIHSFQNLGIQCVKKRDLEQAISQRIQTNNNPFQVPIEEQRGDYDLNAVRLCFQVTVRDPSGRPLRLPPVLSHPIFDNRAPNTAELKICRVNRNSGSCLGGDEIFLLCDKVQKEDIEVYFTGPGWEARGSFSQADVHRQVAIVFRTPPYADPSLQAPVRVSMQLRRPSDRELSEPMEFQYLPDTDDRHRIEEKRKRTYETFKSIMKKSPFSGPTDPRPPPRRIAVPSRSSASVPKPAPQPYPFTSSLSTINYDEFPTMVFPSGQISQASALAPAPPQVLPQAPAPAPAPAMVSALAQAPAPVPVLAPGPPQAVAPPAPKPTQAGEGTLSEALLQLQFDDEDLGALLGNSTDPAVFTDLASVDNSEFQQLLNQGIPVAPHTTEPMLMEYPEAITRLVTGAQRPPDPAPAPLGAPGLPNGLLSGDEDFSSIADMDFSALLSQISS
T1 sequence (Q04206 1-537 limits assumed, stated change not applied): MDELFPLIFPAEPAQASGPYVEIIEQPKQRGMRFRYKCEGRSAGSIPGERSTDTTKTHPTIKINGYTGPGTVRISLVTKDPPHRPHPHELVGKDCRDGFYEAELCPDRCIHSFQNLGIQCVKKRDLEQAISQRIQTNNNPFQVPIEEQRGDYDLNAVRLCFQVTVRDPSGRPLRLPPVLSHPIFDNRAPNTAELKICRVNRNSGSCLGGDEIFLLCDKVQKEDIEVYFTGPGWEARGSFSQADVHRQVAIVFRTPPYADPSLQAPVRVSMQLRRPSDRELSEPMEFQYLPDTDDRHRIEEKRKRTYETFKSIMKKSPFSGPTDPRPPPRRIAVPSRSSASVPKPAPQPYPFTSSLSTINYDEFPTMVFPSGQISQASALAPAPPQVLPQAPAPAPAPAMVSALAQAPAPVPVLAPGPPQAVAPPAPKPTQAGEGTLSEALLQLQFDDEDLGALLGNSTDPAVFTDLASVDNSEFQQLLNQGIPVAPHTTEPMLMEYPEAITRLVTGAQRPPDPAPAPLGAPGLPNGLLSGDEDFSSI

Ac-CLSPEEPAPESPQVPEAPGGSAV-NH2 [GILZ-P]
IL-10 secretion [1, 7]: higher
IFN-γ secretion [1, 8]: significantly reduced
IL-12 secretion [1, 8]: significantly reduced
TNF-α secretion [1, 8]: significantly reduced
IFN-γ secretion [1, 9]: 97.4 ± 6.9 pg/mL
IL-10 secretion [1, 9]: 1850.8 ± 90 pg/mL
IL-12 secretion [1, 9]: 28.4 ± 1.6 pg/mL
IL-17 secretion [1, 9]: 10.43 ± 0.4 pg/mL
TGF-β secretion [1, 9]: 33.31 ± 4 pg/mL
IFN-γ secretion [1, 10]: 96.5 ± 7.1 pg/mL
IL-12 secretion [1, 10]: 12.7 ± 0.47 pg/mL
IL-17 secretion [1, 10]: 10.85 ± 0.3 pg/mL
IL-10 secretion ([1]; PLP139-151 stimulation, mice treated on day 0): 2316 ± 52.9 pg/mL
IL-12 secretion, in words [1, 11]: significantly lower
reduction in IFN-γ, in words [1, 11]: not significant
absorbance of plate-bound agent probed with p65ΔC14 [2]: Absorbance over background was not observed
mean residue molar ellipticity θ, maximum at 238 nm ([3]; 50° C.): 1.12×10^3 deg cm^2 dmol^−1
mean residue molar ellipticity θ, minimum at 200 nm ([3]; 50° C.): −20.03×10^3 deg·cm^2/dmol
mean residue molar ellipticity θ @ 204 nM ([3]; 90° C.): −11.37×10^3 deg cm^2/dmol
mean residue ellipticity minimum at 205 nM ([3]; in 5M CaCl2): −8.84×10^3 deg cm^2/dmol
mean clinical score (severity of clinical disease) ([4]; Example 1, GILZ peptide 500 μg i.p. on day 12 post-induction): 1.78+/−1.01
average clinical score per day, in words ([4]; Example 1, day 0/day 12 treatment vs control groups, listed as GILZ peptide): significantly reduced scores
average clinical score per day, in words ([4]; Example 1, day 0/day 12 treatment vs control groups, listed as GILZ-peptide): significantly lower
clinical relapse after initial remission [4, 12]: exhibited no relapse
mean clinical score (severity of clinical disease) [4, 13]: 0.56+/−0.21
clinical relapse after initial remission ([4]; Example 2): exhibited minimal relapse
mean total clinical score ([4]; Example 2, Pep-1•GILZ-P single dose on day 12): 15.75±4.85
mean total clinical score [4, 14]: 2.25±0.72
average clinical score per day, in words ([4]; Example 2, vs control groups): significantly lower
time at which maximum absorbance was reached in binding with r-p65 [5]: 38 s
adjusted velocity of the interaction with r-p65 ([5]; at 1:4 molar concentrations): 25 s⁻¹
p65 binding (absorbance) of plate-bound agent probed with full-length r-p65 ([5]; varying coating concentrations, 40 μM r-p65): decreased with decreasing concentrations

r-GILZ: recombinant glucocorticoid induced leucine zipper protein (Abnova; OriGene with C-terminal DDK)
IL-10 secretion [1, 7]: higher
IFN-γ secretion [1, 8]: significantly reduced
IL-12 secretion [1, 8]: significantly reduced
TNF-α secretion [1, 8]: significantly reduced
IL-10 secretion [1, 9]: 1667 ± 63.7 pg/mL
TGF-β secretion [1, 9]: 31.7 ± 0.8 pg/mL
IFN-γ secretion [1, 10]: 100.5 ± 6.8 pg/mL
IL-12 secretion [1, 10]: 22.5 ± 01.05 pg/mL
IL-17 secretion [1, 10]: 10.66 ± 0.2 pg/mL
average clinical score per day, in words ([4]; Example 1, day 0/day 12 treatment vs control groups): significantly reduced scores; also recorded: significantly lower
clinical relapse after initial remission [4, 12]: exhibited no relapse
mean clinical score (severity of clinical disease) [4, 13]: 0.17+/−0.14
clinical relapse after initial remission ([4]; Example 2): exhibited minimal relapse
mean total clinical score [4, 14]: 7.13±2.8
average clinical score per day, in words ([4]; Example 2, vs control groups): significantly lower
IL-10 secretion [6]: significantly elevated
secretion of IFN-γ [6]: significantly reduced
secretion of IL-12 [6]: significantly reduced
